Our source for the EC50, IC50 and outcome values is PubChem BioAssay AID179 (DTP/NCI, 2004).

pEC50, pIC50: −log10 of the molar value. Activity calls are given as the source filed them.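 The calls were made as follows: active = compounds giving half or more protection of infected cells from virus-caused growth loss, again on retest; inactive = the rest.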

The term pEC50 denotes the negative decadic logarithm of the EC50, by convention in mol/L. The term pIC50 denotes the IC50 on a negative log10 scale, so that one unit is a factor of ten. A higher pIC50 goes with a small IC50.

In the experiment the test system is CEM cells HIV-1 protection, formazan growth assay. Description: NCI AIDS Antiviral Assay. The settings on record: for pIC50: measured here: growth of uninfected CEM cells. A digest of the protocol:
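Category rules: moderately active means at least 50% protection on retest, and confirmed active means 100% protection reproducibly. The underlying data came from a formazan growth assay in HIV-1-infected CEM cells.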

On to `O=C1NC(N2CCCC(CO)C2)=N/C1=C\c1ccc(Cl)cc1` (configuration not stated), for which the pEC50 was less than 3.70 and the pIC50 was 3.94.

As for `CN(C)c1ccc(C(=O)CCCN2CCC(O)(c3ccc(Cl)cc3)CC2)cc1`, the pEC50 was less than 4.60 and the pIC50 was less than 4.60.

Regarding `CCCCCCc1cn([C@H]2C[C@H](O)[C@@H](CO)O2)c(=O)[nH]c1=O`, the result was inactive.

Take `c1cncc(C2(c3cc4ccccc4[nH]3)COCO2)c1` (configuration not stated): the pEC50 was less than 3.70 and the negative-log IC50 (pIC50) was 3.90.

For the compound `COc1ccc2c(c1)c1c3c(ccc4ncn2c43)N(CCN(C)C)CCN=1`, the pEC50 is less than 4.70 and the pIC50 is 6.49.

As for `CCS1=C(C(C)=O)C(=O)O[C@H](C)C1` (some centres not stated), the pEC50 was less than 2.91 and the pIC50 was less than 2.91.

As for `CC1=NN(c2nc(N)nc(NS(=O)(=O)c3cc(C)c(Cl)cc3S)n2)C(C)(C)C1`, the pEC50 was 3.98 and the negative-log IC50 (pIC50) is 3.32.

As to `CCCCc1ccc(C(=O)O)nc1`, the result was inactive.

Take `C[N+]1(CCO)C2CCC1CC(O)C2` (configuration not stated): the pEC50 was less than 3.70 and the pIC50 is less than 3.70.

For the compound `O=C1C(=O)N(c2cc(Cl)ccc2Cl)C(=O)C(=O)C1c1nc2ccccc2s1`, the outcome was inactive.

Regarding `CC(=O)N(C(C)=O)c1cnc2c(nc3cc(C)ccn32)c1C`, the pEC50 was less than 3.70 and the pIC50 was 4.28.

For `O=C(CC(=O)c1ccccc1O)c1ccccc1`, the pEC50 is less than 4.52 and the negative-log IC50 (pIC50) was less than 4.52.

On to `COC(c1cccc(C(O)(C(F)(F)F)C(F)(F)F)c1)(C(F)(F)F)C(F)(F)F`, for which the result was inactive.

With `O=C1C(=O)N(C2CCCCC2)C(=S)N1C1CCCCC1`, the pEC50 is less than 3.70 and the pIC50 was less than 3.70.

For `CN(c1ccccc1)c1nc(=[N+]2CCCC2)ss1`, the result was inactive.

`Nc1ncnc2c1ncn2CC(O)C(=O)O` (configuration not stated): the result was inactive.

Turning to `O=C1OC(Cc2ccccc2)=C(Cl)C(Cl)(Cc2ccccc2)C1Cl` (configuration not stated), the pEC50 is less than 3.70 and the pIC50 is 5.28.

As for `Cc1cc(Cl)ccc1N=NC(=O)NNc1ccc(Cl)cc1C`, the pEC50 was less than 3.70 and the negative-log IC50 (pIC50) was 4.28.

For the compound `COc1ccc(-c2[nH]c3ccccc3c2-c2ccc(OC)cc2)cc1`, the pEC50 is less than 3.70 and the pIC50 is 4.89.

As for `Cc1csc(NC23CC4CC(CC(C4)C2)C3)[n+]1C(P(=O)([O-])O)P(=O)(O)O` (configuration not stated), the pEC50 is less than 3.70 and the pIC50 is less than 3.70.

With `COc1ccc(/C=C2/N=C(c3ccccc3)OC2=O)cc1OC`, the pEC50 is less than 4.63 and the negative logarithm of the IC50 (pIC50) was less than 4.63.

On to `Cc1cc(S(=O)(=O)Nc2nc(Nc3ccccc3)nn2C)c(S)cc1Cl`, for which the pEC50 was less than 3.70 and the pIC50 was 3.78.

Turning to `O=[N+]([O-])c1cccc(/C=N/Nc2ccc(S(=O)(=O)O)cc2)c1`, the pEC50 is less than 3.14 and the pIC50 was 3.19.

For `C=CCO/N=C/c1cc(NC(=S)c2ccoc2C)ccc1Cl`, the negative logarithm of the EC50 (pEC50) is 7.73 and the negative-log IC50 (pIC50) is 4.81.

Take `O=C1NC(=O)C2C3C=CC(C12)C1C2C(=O)NC(=O)C2C31` (configuration not stated): the pEC50 was less than 4.02 and the pIC50 was less than 4.02.

As to `Cc1cccc(C(C)(C)C)c1NC(=O)/C(Cc1nc2ccc([N+](=O)[O-])cc2[nH]c1=O)=N/NC(=O)C[N+](C)(C)C`, the pEC50 is less than 3.36 and the pIC50 is 4.22.

With `Cn1c(=O)c2c([nH]c(=O)n2C)n(C)c1=O`, the pEC50 was less than 3.70 and the negative logarithm of the IC50 (pIC50) was less than 3.70.

In turn, `C[C@@H](NC(=O)c1ccccc1SC(=O)OCC[n+]1ccccc1)C(N)=O` gave a pEC50 of 5.55 and a pIC50 of less than 3.70.

Turning to `CC(C)(C)N1CC1CNC(=O)C(=O)NCC1CN1C(C)(C)C` (configuration not stated), the pEC50 was less than 3.70 and the negative-log IC50 (pIC50) was 5.87.

Regarding `O=C1Nc2ccccc2Cn2c1cc1oc(-c3ccccc3)cc12`, the pEC50 is less than 3.70 and the negative-log IC50 (pIC50) was 3.72.

Take `C=CCNc1nc2c(s1)C(=O)c1ccccc1C2=O`: the pEC50 is less than 4.86 and the negative-log IC50 (pIC50) was 5.08.

For `Cn1c(=O)oc2cc(C(=O)CSC(=S)N3CCCCCC3)ccc21`, the pEC50 is less than 3.70 and the negative-log IC50 (pIC50) is 3.87.

As to `CCSSc1ccccc1C(=O)NC(CC)CO` (configuration not stated), the pEC50 is less than 3.70 and the pIC50 was 5.30.

With `CCOC(=O)c1cc(-c2ccc(OC)cc2)c([N+](=O)[O-])[nH]1`, the pEC50 was less than 3.70 and the negative-log IC50 (pIC50) is 4.59.

Take `CCOc1ccc(Nc2nc(N)nc(N)c2N=O)cc1`: the pEC50 is less than 3.82 and the pIC50 was 4.80.

As to `COc1cc(OS(=O)(=O)O)c2c(c1)cc(O)c1c(=O)cc(C)oc12`, the pEC50 is less than 3.82 and the pIC50 was less than 3.82.

For the compound `O=C(NC(CSC(c1ccccc1)c1ccccc1)C(=O)Oc1ccc([N+](=O)[O-])cc1)OCc1ccccc1` (configuration not stated), the pEC50 was less than 3.70 and the negative logarithm of the IC50 (pIC50) is 4.07.

As to `C[n+]1c(-c2ccc(/C=N/NC(=S)N/N=C/c3ccc(-c4cn5ccccc5[n+]4C)cc3)cc2)cn2ccccc21`, the pEC50 was less than 4.40 and the pIC50 was 4.66.

Consider `Cc1ccc(SCC(CF)OCn2cnc3c(=O)[nH]c(N)nc32)cc1` (configuration not stated), for which the pEC50 is less than 4.70 and the negative-log IC50 (pIC50) is less than 4.70.

For the compound `COc1cc(OC)c2c(c1)OC(c1ccccc1)CC2=O` (configuration not stated), the pEC50 was less than 3.70 and the pIC50 was less than 3.70.

Regarding `C[CH2][Sn]([CH2]C)([O]C(=O)c1cccc(F)c1)[O][Sn]([CH2]C)([CH2]C)[O]C(=O)c1cccc(F)c1`, the pEC50 is less than 5.23 and the pIC50 is less than 5.23.

Consider `O=C(CCc1ccc(O)cc1)NCCCNC(=O)CCc1ccc(O)cc1`, for which the pEC50 is less than 3.70 and the pIC50 was less than 3.70.

In the case of `CCOC(=O)C(=Cc1cccc(F)c1)C(=O)OCC`, the pEC50 is less than 3.45 and the pIC50 was 4.65.

Regarding `CC(=O)OC1CC2C(C)(C)CCC[C@]2(C)C2=C1C(O)=C(C(C)C)C(=O)C2=O` (some centres not stated), the outcome was inactive.

`Nc1ccc(-c2ncc3cc(-c4cccc(-c5cc6cnc(-c7ccc(N)cc7)nc6c6ccccc56)c4)c4ccccc4c3n2)cc1`: the pEC50 was less than 3.70 and the pIC50 is less than 3.70.

`Cc1[nH]c(=O)[nH]c1C(=O)c1ccc(-n2ccnc2)cc1`: the pEC50 was less than 4.85 and the negative logarithm of the IC50 (pIC50) was less than 4.85.

For the compound `CCOP(=O)(CC(=O)NC(C(N)=O)C(C)C)OCC` (configuration not stated), the pEC50 was less than 4.00 and the pIC50 is 4.28.

Consider `CN1C(OCc2ccccc2)c2c(ccc3c2OCO3)C2C=Cc3cc4c(cc3C21)OCO4` (configuration not stated), for which the pEC50 is less than 4.93 and the pIC50 is 6.17.

On to `CC1=NN(c2ccccc2)C(=O)C1N=Nc1ccc(Br)cc1C` (configuration not stated), for which the pEC50 was less than 4.76 and the negative-log IC50 (pIC50) was less than 4.76.

For the compound `c1ccc2[nH]c(C3=NCCS3)nc2c1`, the pEC50 was less than 2.91 and the pIC50 is 3.62.

Consider `O=C(Nc1c(NCC(O)C(O)C(O)CO)[nH]c(=O)[nH]c1=O)c1ccc(S(=O)(=O)F)cc1` (configuration not stated), for which the pEC50 is less than 3.70 and the negative logarithm of the IC50 (pIC50) is 3.93.

Turning to `CCN(CC)CC(=O)Nc1ccc(CO)cc1`, the pEC50 was less than 3.70 and the pIC50 is less than 3.70.

`O=c1oc2cc(O)ccc2c(O)c1C(c1ccc(C(c2c(O)c3ccc(O)cc3oc2=O)c2c(O)c3ccc(O)cc3oc2=O)cc1)c1c(O)c2ccc(O)cc2oc1=O`: the pEC50 is less than 3.70 and the negative-log IC50 (pIC50) is 4.04.

`Cc1ccc(NC(=O)CC/C(CC(=O)C(C)(C)C)=N/Nc2nnc(C)n2N)cc1C`: the pEC50 is less than 4.06 and the pIC50 was less than 4.06.

Regarding `COC(=O)CCC(=O)c1ccc2c(c1)CC1(C2)Cc2ccc(C(=O)CCC(=O)OC)cc2C1`, the pEC50 is less than 3.70 and the pIC50 was 4.37.

Turning to `CC(=O)c1c(-c2ccco2)c(C#N)c(=S)n(C2OC(CO)C(O)C(O)C2O)c1C` (configuration not stated), the pEC50 is less than 3.70 and the pIC50 is 4.06.

Consider `CC(C)(C)c1cc(C(=O)[O-])c([OH2+])c(C(C)(C)C)c1.CC(C)(C)c1cc(C(=O)[O-])c([OH2+])c(C(C)(C)C)c1.[Mn+2]`, for which the pEC50 is less than 4.07 and the negative-log IC50 (pIC50) was 4.47.

On to `Cc1ccc(S(=O)(=O)n2cc(/C=C/C#N)c(-c3cn(S(=O)(=O)c4ccc(C)cc4)cc3-c3cn(S(=O)(=O)c4ccc(C)cc4)cc3/C=C/C#N)c2)cc1`, for which the pEC50 is less than 3.70 and the pIC50 was less than 3.70.

`c1csc(-c2nnc(C34CC5CC(CC(C5)C3)C4)o2)c1`: the pEC50 was less than 3.70 and the negative-log IC50 (pIC50) is 4.30.

`Clc1cccc(C=NC23CC4CC(CC(C4)C2)C3)c1Cl`: the pEC50 was less than 3.70 and the pIC50 was 4.88.

For the compound `CC(C)N=C(N)CSS(=O)(=O)O`, the pEC50 is less than 3.70 and the negative logarithm of the IC50 (pIC50) was less than 3.70.

As to `COC(=O)CCC(NC(=O)OC(C)(C)C)C(=O)NC(Cc1ccc(NC(=O)CCCC(C)=O)cc1)C(=O)NC(CCC(=O)OC)C(=O)OC` (configuration not stated), the pEC50 is less than 4.00 and the negative-log IC50 (pIC50) is less than 4.00.

`CC(C)(C)C1=NC(=P(c2ccccc2)(c2ccccc2)c2ccccc2)C(=O)O1`: the pEC50 was less than 4.00 and the pIC50 is less than 4.00.

For `CC1OC(OC2C(CO)OC(O[C@H]3CC[C@@]4(C)C(=CC[C@H]5[C@@H]6C[C@@H]7O[C@]8(CC[C@@H](C)CN8)[C@@H](C)[C@@H]7[C@@]6(C)CC[C@@H]54)C3)C(O)C2O)C(O)C(O)C1O` (some centres not stated), the outcome was inactive.

Turning to `COCC#C[C@@]1(O)CCCCC1CC(OC)OC` (some centres not stated), the pEC50 was less than 3.70 and the pIC50 was 3.95.

Consider `COc1cc2c(c(OC)c1OC)-c1cccc(=O)cc1C(NC(C)=O)CC2` (configuration not stated), for which the pEC50 is less than 5.70 and the pIC50 was 7.41.

Regarding `N#CC(=N)c1ncn(-c2ccccc2N)c1N`, the pEC50 was less than 3.70 and the negative logarithm of the IC50 (pIC50) was less than 3.70.

As for `Nc1nc(Cl)cc(NCC2(CO)CCC(OCc3ccccc3)C2)n1` (configuration not stated), the negative-log EC50 (pEC50) was 4.84 and the pIC50 was 4.75.

In the case of `CC1CC(C)(C)NC2(CCCC2)N1` (configuration not stated), the pEC50 was less than 3.70 and the pIC50 is less than 3.70.

On to `Cc1cn(C2CC(F)C(COC(=O)CCCCCCCCCCCBr)O2)c(=O)[nH]c1=O` (configuration not stated), for which the pEC50 is 7.62 and the pIC50 is 4.54.
